# From PMC4970445, “Multiple active site residues are important for photochemical efficiency in the light-activated enzyme protochlorophyllide oxidoreductase (POR)^” (Journal of Photochemistry and Photobiology. B, Biology, 2016)
# Tests used:
# Assay in all cases: FRET from protein Trp to bound NADPH
# Assay type in all cases: binding
# [1] = molecular target: T1, protochlorophyllide oxidoreductase (POR) (Thermosynechococcus vestitus, UniProt Q8DLC1)
# T1 construct: recombinant, overexpressed in Escherichia coli, purified as in earlier work
# Source text: (§1) FRET from protein Trp to bound NADPH on protochlorophyllide oxidoreductase (POR)
# [2] = molecular target: T2, protochlorophyllide oxidoreductase (POR) (Thermosynechococcus vestitus, UniProt Q8DLC1, G19A)
# T2 construct: recombinant, overexpressed in Escherichia coli, purified as in earlier work
# Source text: as §1
# [3] = molecular target: T3, protochlorophyllide oxidoreductase (POR) (Thermosynechococcus vestitus, UniProt Q8DLC1, K42A)
# T3 construct: recombinant, overexpressed in Escherichia coli, purified as in earlier work
# Source text: as §1
# [4] = molecular target: T4, protochlorophyllide oxidoreductase (POR) (Thermosynechococcus vestitus, UniProt Q8DLC1, R38V)
# T4 construct: recombinant, overexpressed in Escherichia coli, purified as in earlier work
# Source text: as §1
# [5] = molecular target: T5, protochlorophyllide oxidoreductase (POR) (Thermosynechococcus vestitus, UniProt Q8DLC1, S16C)
# T5 construct: recombinant, overexpressed in Escherichia coli, purified as in earlier work
# Source text: as §1
# [6] = molecular target: T6, protochlorophyllide oxidoreductase (POR) (Thermosynechococcus vestitus, UniProt Q8DLC1, T230F)
# T6 construct: recombinant, overexpressed in Escherichia coli, purified as in earlier work
# Source text: as §1
# T6 sequence (Q8DLC1 entry or part of it T230F): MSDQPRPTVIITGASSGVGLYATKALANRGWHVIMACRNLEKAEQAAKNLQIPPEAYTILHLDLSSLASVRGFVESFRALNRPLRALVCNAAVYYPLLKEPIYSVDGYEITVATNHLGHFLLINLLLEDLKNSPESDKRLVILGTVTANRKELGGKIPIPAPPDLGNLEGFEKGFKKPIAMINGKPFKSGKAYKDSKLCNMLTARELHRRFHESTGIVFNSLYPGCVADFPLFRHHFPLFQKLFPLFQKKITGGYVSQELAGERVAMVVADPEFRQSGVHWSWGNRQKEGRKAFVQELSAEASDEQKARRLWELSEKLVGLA
# T2 sequence (Q8DLC1 entry or part of it G19A): as the sequence (Q8DLC1 entry or part of it T230F) above, with G19A, F230T counted along it
# T4 sequence (Q8DLC1 entry or part of it R38V): as the sequence (Q8DLC1 entry or part of it T230F) above, with R38V, F230T counted along it
# T1 sequence (Q8DLC1 1-322): as the sequence (Q8DLC1 entry or part of it T230F) above, with F230T counted along it
# T5 sequence (Q8DLC1 entry or part of it S16C): as the sequence (Q8DLC1 entry or part of it T230F) above, with S16C, F230T counted along it
# T3 sequence (Q8DLC1 entry or part of it K42A): as the sequence (Q8DLC1 entry or part of it T230F) above, with K42A, F230T counted along it
compound,measurement,setting,value
NC(=O)C1=CN([C@@H]2O[C@H](COP(=O)(O)OP(=O)(O)OC[C@H]3O[C@@H](n4cnc5c(N)ncnc54)[C@H](OP(=O)(O)O)[C@@H]3O)[C@@H](O)[C@H]2O)C=CC1 [NADPH],Kd,[1],21 ± 1 nM
same,Kd,[2],182 ± 31 nM
same,Kd,[3],230 ± 81 nM
same,Kd,[4],411 ± 76 nM
same,Kd,[5],325 ± 90 nM
same,Kd,[6],436 ± 87 nM
